Data taken from patent publication US5480892A, “(N-phthalimidoalkyl)piperidines” (The Du Pont Merck Pharmaceutical Company, priority 1994, dated 1996).
Like-named read-outs stand apart in the source and are kept apart here.

Experiments:
Sigma receptor = target: T1, Sigma receptor (Cavia porcellus, UniProt Q60492); test: Sigma Receptor Binding Assay; type: guinea pig (male Hartley), brain membranes; details: 1 nM (+)-[3H]SKF 10,047, guinea pig brain membranes, pH 7.4, 45 min room temperature; read-out: Receptor Binding Affinity Sigma (Ki class)
T1 construct: Brain membranes were prepared by the method of Tam; from tissue; host or cells: guinea pig whole brain membranes
T1 sequence (Q60492 whole entry): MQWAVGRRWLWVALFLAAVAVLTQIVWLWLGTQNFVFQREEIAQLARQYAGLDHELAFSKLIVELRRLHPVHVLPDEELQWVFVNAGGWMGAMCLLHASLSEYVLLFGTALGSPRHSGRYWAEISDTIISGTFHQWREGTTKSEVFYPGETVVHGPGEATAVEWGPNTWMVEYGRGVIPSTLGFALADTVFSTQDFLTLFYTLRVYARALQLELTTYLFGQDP

Dopamine (D-2) receptor = target: T2, Dopamine (D-2) receptor (Cavia porcellus, UniProt H0VE83); test: Dopamine Receptor Binding; type: guinea pig, striatum membranes
T2 construct: Membranes were prepared from guinea pig striatum; from tissue; host or cells: guinea pig striatum membranes
T2 sequence (H0VE83 1-446): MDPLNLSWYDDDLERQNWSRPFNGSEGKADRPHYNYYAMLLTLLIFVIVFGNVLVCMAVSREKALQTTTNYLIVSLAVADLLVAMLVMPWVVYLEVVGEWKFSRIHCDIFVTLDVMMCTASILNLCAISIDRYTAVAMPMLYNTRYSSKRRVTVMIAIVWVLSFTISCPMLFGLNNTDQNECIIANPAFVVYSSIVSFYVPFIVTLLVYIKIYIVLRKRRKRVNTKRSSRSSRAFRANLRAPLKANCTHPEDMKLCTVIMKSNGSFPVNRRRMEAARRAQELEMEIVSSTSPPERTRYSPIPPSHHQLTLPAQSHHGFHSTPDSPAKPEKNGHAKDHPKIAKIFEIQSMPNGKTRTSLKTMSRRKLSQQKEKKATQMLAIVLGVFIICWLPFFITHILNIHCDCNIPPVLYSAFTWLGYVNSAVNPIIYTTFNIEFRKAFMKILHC

[1] = 0.15 nM [3H]spiperone, guinea pig striatum, pH 7.7, 15 min 37° C., read-out: Receptor Binding Affinity Dopamine (D-2) (Ki class)

SMILES	Ki (Sigma receptor)	Ki (Dopamine (D-2) receptor; [1])	Ki (Dopamine (D-2) receptor)
O=C1[C@@H]2CCCC[C@H]2C(=O)N1CC1CCN(CCc2ccccc2)CC1 (relative stereo) [Example 22]	0.031 to 0.1 µM	> 0.5 µM	–
O=C1[C@H]2CC=CC[C@H]2C(=O)N1CC1CCN(CCc2ccccc2)CC1 [Example 1, 2-[1-(2-Phenylethyl)-4-piperidinylmethyl]-cis-3a; 4,7,7a-tetrahydro-1H-isoindole-1,3(2H)-dione]	0.031 to 0.1 µM	> 0.5 µM	–
O=C1C2CCCCC2C(O)N1CC1CCN(CCc2ccccc2)CC1 (stereo not drawn) [Example 5, cis-Octahydro-3-hydroxy-2-[[1-(2-phenylethyl)-4-piperidinyl]methyl]-1H-isoindol-1-one]	0.101 to 0.5 µM	> 0.5 µM	–
O=C1c2ccccc2C(O)N1CC1CCN(CCc2ccccc2)CC1 (centres unmarked) [Example 7, 2,3-Dihydro-3-hydroxy-2-[[1-(2-phenylethyl]-4-piperidinyl]methyl]-1H-isoindol-1-one]	0.101 to 0.5 µM	> 0.5 µM	–
CC1(O)C2CCCCC2C(=O)N1CC1CCN(CCc2ccccc2)CC1 (stereo not drawn) [Example 8, cis-Octahydro-3-hydroxy-3-methyl-2-[[1-(2-phenylethyl)4-piperidinyl]methyl]-1H-isoindol-1-one]	0.101 to 0.5 µM	> 0.5 µM	–
O=C1C2C3C=CC(C4CCC34)C2C(=O)N1CC1CCN(CCc2c[nH]c3ccccc23)CC1 (centres unmarked) [Example 10]	0.001 to 0.03 µM	0.031 to 0.1 µM	–
O=C1[C@H]2CCCC[C@H]2C(=O)N1C1CCN(Cc2ccccc2)CC1 [Example 12]	0.001 to 0.03 µM	> 0.5 µM	–
O=C1[C@H]2CCCC[C@H]2C(=O)N1C1CCN(CCc2ccccc2)CC1 [Example 13]	0.031 to 0.1 µM	> 0.5 µM	–
O=C1[C@H]2CCCC[C@H]2C(=O)N1CC1CCN(CCCc2ccccc2)CC1 [Example 16]	0.031 to 0.1 µM	> 0.5 µM	–
O=C1[C@H]2CCCC[C@H]2C(=O)N1CC1CCN(Cc2cccc(C(F)(F)F)c2)CC1 [Example 18]	0.031 to 0.1 µM	> 0.5 µM	–
O=C1[C@H]2CCCC[C@H]2C(=O)N1CC1CCN(CCc2ccc(O)cc2)CC1 [Example 19]	0.101 to 0.5 µM	0.101 to 0.5 µM	–
O=C1[C@H]2CCCC[C@H]2C(=O)N1CC1CCN(Cc2ccc(F)cc2)CC1 [Example 20]	0.001 to 0.03 µM	> 0.5 µM	–
O=C1[C@H]2CCCC[C@H]2C(=O)N1CC1CCN(CC2CC2)CC1 [Example 21]	0.101 to 0.5 µM	> 0.5 µM	–
O=C1[C@H]2CCCC[C@H]2C(=O)N1CCC1CCN(CCc2ccccc2)CC1 [Example 24]	0.001 to 0.03 µM	> 0.5 µM	–
O=C1[C@H]2CCCC[C@H]2C(=O)N1CC1CCN(CCc2ccc(Cl)cc2)CC1 [Example 26]	0.001 to 0.03 µM	> 0.5 µM	–
O=C1[C@H]2CCCC[C@H]2C(=O)N1CC1CCN(CCc2ccc([N+](=O)[O-])cc2)CC1 [Example 27]	0.001 to 0.03 µM	> 0.5 µM	–
CN(C)c1ccc(CCN2CCC(CN3C(=O)[C@H]4CCCC[C@H]4C3=O)CC2)cc1 [Example 28]	0.001 to 0.03 µM	> 0.5 µM	–
O=C1[C@H]2CCCC[C@H]2C(=O)N1CC1CCN(CCc2ccc(F)cc2)CC1 [Example 29]	0.031 to 0.1 µM	> 0.5 µM	–
O=C1[C@H]2CCCC[C@H]2C(=O)N1CC1CCN(CCc2ccc(Br)cc2)CC1 [Example 30]	0.001 to 0.03 µM	0.101 to 0.5 µM	–
O=C1[C@H]2CCCC[C@H]2C(=O)N1CC1CCN(CCc2ccc(C(F)(F)F)cc2)CC1 [Example 31]	0.101 to 0.5 µM	> 0.5 µM	–
O=C1[C@H]2CCCC[C@H]2C(=O)N1CC1CCN(CCc2c[nH]c3ccccc23)CC1 [Example 32]	0.101 to 0.5 µM	–	> 0.5 µM
O=C1[C@H]2CCCC[C@H]2C(=O)N1CCCC1CCN(CCc2ccccc2)CC1 [Example 33]	0.001 to 0.03 µM	> 0.5 µM	–
O=C1C2CC=CCC2C(=O)N1CC1CCN(CCc2ccccc2)CC1 (centres unmarked) [Example 52]	0.001 to 0.03 µM	> 0.5 µM	–
O=C1C2C3CCC(C3)C2CN1CC1CCN(CCc2ccccc2)CC1 (centres unmarked) [Example 54]	0.031 to 0.1 µM	> 0.5 µM	–
O=C1C2C3C=CC(C3)C2C(=O)N1CC1CCN(CCc2ccccc2)CC1 (centres unmarked) [Example 55]	0.031 to 0.1 µM	> 0.5 µM	–
O=C1C2C3CC(c4ccccc43)C2C(=O)N1CC1CCN(CCc2ccccc2)CC1 (centres unmarked) [Example 57]	0.001 to 0.03 µM	> 0.5 µM	–
O=C1C2C3CCC(O3)C2C(=O)N1CC1CCN(CCc2ccccc2)CC1 (centres unmarked) [Example 58]	0.001 to 0.03 µM	> 0.5 µM	–
O=C1C2C3C=CC(C4CCC34)C2C(=O)N1CC1CCN(CCc2ccccc2)CC1 (centres unmarked) [Example 59]	0.031 to 0.1 µM	> 0.5 µM	–
O=C1C2C3CCCC(CC3)C2C(=O)N1CC1CCN(CCc2ccccc2)CC1 (centres unmarked) [Example 61]	0.001 to 0.03 µM	> 0.5 µM	–
O=C1C2C3C=CC(C4CCC34)C2C(=O)N1CC1CCN(CCc2ccccc2)CC1 (centres unmarked) [Example 113]	0.031 to 0.1 µM	–	–

Further lines, with some results ahead:

Ki (Sigma receptor)	Ki (Dopamine (D-2) receptor; [1])	SMILES	Ki (Dopamine (D-2) receptor)
0.031 to 0.1 µM	> 0.5 µM	O=C1c2ccccc2C(=O)N1CC1CCN(CCc2ccccc2)CC1 [Example 2, 2-[1-(2-Phenylethyl)-4-piperidinylmethyl]-1H-isoindole-1,3(2H)-dione]	–
0.001 to 0.03 µM	> 0.5 µM	O=C1c2ccccc2C(=O)N1CCCC1CCCN(Cc2ccccc2)C1 (centres unmarked) [Example 4, 2-[3-[1-(phenylmethyl)-3-piperidinyl]propyl]-1H-isoindole-1,3(2H)-dione]	–
0.001 to 0.03 µM	0.101 to 0.5 µM	O=C1c2cccc3cccc(c23)C(=O)N1CCC1CCN(CCc2ccccc2)CC1 [Example 9]	–
0.001 to 0.03 µM	> 0.5 µM	O=C1[C@H]2CCCC[C@H]2C(=O)N1CC1CCN(Cc2ccccc2)CC1 [Example 14]	–
0.031 to 0.1 µM	> 0.5 µM	O=C1c2ccccc2C(=O)N1CC1CCN(Cc2cccc(F)c2)CC1 [Example 35]	–
0.001 to 0.03 µM	> 0.5 µM	O=C1c2ccccc2C(=O)N1CC1CCN(Cc2ccc(F)cc2)CC1 [Example 36]	–
0.101 to 0.5 µM	> 0.5 µM	O=C1c2ccccc2C(=O)N1CC1CCN(CC2CC2)CC1 [Example 37]	–
0.001 to 0.03 µM	> 0.5 µM	O=C1c2ccccc2C(=O)N1CCC1CCN(Cc2ccccc2)CC1 [Example 38]	–
0.001 to 0.03 µM	> 0.5 µM	O=C1c2ccccc2C(=O)N1CCC1CCN(Cc2cccc(F)c2)CC1 [Example 40]	–
0.001 to 0.03 µM	> 0.5 µM	O=C1c2ccccc2C(=O)N1CCC1CCN(Cc2ccc(F)cc2)CC1 [Example 41]	–
0.001 to 0.03 µM	> 0.5 µM	O=C1c2ccccc2C(=O)N1CCC1CCN(CC2CC2)CC1 [Example 42]	–
0.001 to 0.03 µM	> 0.5 µM	O=C1c2ccccc2C(=O)N1CCCC1CCN(Cc2ccccc2)CC1 [Example 43]	–
0.001 to 0.03 µM	> 0.5 µM	O=C1c2ccccc2C(=O)N1CCCC1CCN(CCc2ccccc2)CC1 [Example 44]	–
0.001 to 0.03 µM	> 0.5 µM	O=C1c2ccccc2C(=O)N1CC1CCCN(Cc2ccccc2)C1 (centres unmarked) [Example 47]	–
0.001 to 0.03 µM	> 0.5 µM	O=C1c2ccccc2C(=O)N1CC1CCCN(CCc2ccccc2)C1 (centres unmarked) [Example 48]	–
0.001 to 0.03 µM	> 0.5 µM	O=C1c2ccccc2C(=O)N1CCCC1CCCN(CCc2ccccc2)C1 (centres unmarked) [Example 49]	–
0.031 to 0.1 µM	> 0.5 µM	O=C1c2ccccc2C(=O)N1CCC1CCCCN1Cc1ccccc1 (centres unmarked) [Example 50]	–
0.001 to 0.03 µM	> 0.5 µM	O=C1C2=C(CCCC2)C(=O)N1CC1CCN(CCc2ccccc2)CC1 [Example 56]	–
